# pEC50: −log10 of the molar value.
# Columns and labels:
# [1] = system: Caenorhabditis elegans; test: Growth inhibition of adult Caenorhabditis elegans measured on day 3 by microscopy; format: functional; conditions: 72 h
# [2] = system: Caenorhabditis elegans; test: Inhibition of hatch of eggs newly spawned by adult Caenorhabditis elegans measured on day 3; format: functional; conditions: 72 h
# [3] = system: Escherichia coli; test: Antimicrobial activity against Escherichia coli incubated at 37 degC for 24 hrs; format: functional, organism-based
# [4] = system: Staphylococcus aureus; test: Antimicrobial activity against Staphylococcus aureus incubated at 37 degC for 24 hrs; format: functional, organism-based
# [5] = system: Aspergillus fumigatus; test: Antimicrobial activity against Aspergillus fumigatus incubated at 28 degC for 24 hrs; format: functional, organism-based
# [6] = system: Candida albicans; test: Antimicrobial activity against Candida albicans incubated at 28 degC for 24 hrs; format: functional, organism-based
# [7] = system: Pyricularia oryzae; test: Antimicrobial activity against Magnaporthe oryzae incubated at 28 degC for 48 hrs; format: functional, organism-based
# [8] = system: Plasmodium falciparum; test: Antimalarial activity against Plasmodium falciparum K1 after 72 hrs by parasite LDH assay; format: functional, organism-based; conditions: K1, 72 h
# [9] = system: HeLa; test: Cytotoxic activity against human HeLa cells after 48 hrs by WST8 assay; format: functional, cell-based
# [10] = Cytotoxic activity against human HL60 cells after 48 hrs by WST8 assay; format: functional, cell-based; conditions: HL-60, 48 h
# [11] = target: T1, D-amino-acid oxidase (Caenorhabditis elegans, UniProt Q95XG9); test: Inhibition of Caenorhabditis elegans DAO incubated for 10 mins
# T1 sequence (Q95XG9 whole entry): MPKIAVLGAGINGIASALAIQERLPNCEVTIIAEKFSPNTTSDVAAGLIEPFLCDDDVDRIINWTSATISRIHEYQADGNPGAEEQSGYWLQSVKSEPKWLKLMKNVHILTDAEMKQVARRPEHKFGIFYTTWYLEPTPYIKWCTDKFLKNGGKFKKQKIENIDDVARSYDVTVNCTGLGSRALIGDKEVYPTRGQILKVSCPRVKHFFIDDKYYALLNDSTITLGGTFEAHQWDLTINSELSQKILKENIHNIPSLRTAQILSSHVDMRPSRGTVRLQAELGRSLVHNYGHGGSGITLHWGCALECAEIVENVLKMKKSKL
# [12] = target: T2, D-aspartate oxidase 3 (Caenorhabditis elegans, UniProt O01739); test: Inhibition of Caenorhabditis elegans DDO3 incubated for 10 mins
# T2 sequence (O01739 whole entry): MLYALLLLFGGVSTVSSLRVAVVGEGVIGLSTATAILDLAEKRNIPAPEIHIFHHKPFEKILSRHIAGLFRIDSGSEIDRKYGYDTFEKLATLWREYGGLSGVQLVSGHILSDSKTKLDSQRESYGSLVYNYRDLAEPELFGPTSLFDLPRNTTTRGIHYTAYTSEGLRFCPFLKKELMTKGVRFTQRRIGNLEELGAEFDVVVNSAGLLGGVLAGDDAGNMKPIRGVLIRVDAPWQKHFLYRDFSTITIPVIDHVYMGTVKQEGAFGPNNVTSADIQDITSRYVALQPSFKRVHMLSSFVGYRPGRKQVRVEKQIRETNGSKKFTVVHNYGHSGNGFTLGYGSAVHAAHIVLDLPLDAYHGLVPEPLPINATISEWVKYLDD
# [13] = system: Caenorhabditis elegans; test: Inhibition of hatch of eggs newly spawned by adult Caenorhabditis elegans at 17 uM measured on day 3; format: functional; conditions: 72 h
Compound,MIC [1],MIC [2],further results
COC(=O)c1cc(-c2cnco2)ccc1OC,> 100 µM,> 100 µM,
CC(=O)Oc1ccc(-c2cnco2)cc1,> 100 µM,> 100 µM,
COc1ccc(-c2ncco2)cc1,100 µM,> 100 µM,
CN(C)c1ccc(-c2cnco2)cc1,50 µM,> 100 µM,
Cc1ccc(-c2cnco2)cc1,> 100 µM,> 100 µM,
N#Cc1ccc(-c2cnco2)cc1,> 100 µM,100 µM,
CCOC(=O)c1ccc(-c2ncc(-c3ccc(OC)cc3)o2)cc1,> 100 µM,> 100 µM,
c1ccc(-c2cnco2)cc1,> 100 µM,> 100 µM,
Oc1ccc(-c2cnco2)cc1,> 100 µM,> 100 µM,pEC50 [3]: < 4.00; pEC50 [4]: < 4.00; pEC50 [5]: < 4.00; pEC50 [6]: < 4.00; pEC50 [7]: 4.82; pEC50 [8]: < 4.00; pEC50 [9]: 4.29; pEC50 [10]: < 4.00; pEC50 [11]: < 4.00; pEC50 [12]: < 4.00
O=C(O)c1ccc(-c2cnco2)cc1,> 100 µM,> 100 µM,
COc1ccc(-c2cocn2)cc1,> 100 µM,> 100 µM,
COc1ccc(-c2c[nH]cn2)cc1,> 100 µM,> 100 µM,
COc1ccc(-c2cnco2)cc1,34 µM,17 µM,inhibition at 17 µM [13]: 100%; pEC50 [3]: < 4.00; pEC50 [4]: < 4.00; pEC50 [5]: < 4.00; pEC50 [6]: < 4.00; pEC50 [7]: 5.40; pEC50 [8]: < 4.00; pEC50 [9]: 4.52; pEC50 [10]: < 4.00; pEC50 [11]: < 4.00; pEC50 [12]: < 4.00
CCc1ccc(-c2cnco2)cc1,> 100 µM,> 100 µM,
COc1ccc(-c2cnco2)cc1C(=O)O,> 100 µM,> 100 µM,
COc1ccccc1-c1cnco1,> 100 µM,> 100 µM,
COc1ccc(-c2cnc(-c3ccc(C(=O)O)cc3)o2)cc1,> 100 µM,> 100 µM,
COC(=O)c1ccc(-c2cnco2)cc1,> 100 µM,> 100 µM,
COc1cccc(-c2cnco2)c1,> 100 µM,> 100 µM,
COc1ccc(-c2cncs2)cc1,50 µM,> 100 µM,

# Source: ChEMBL document CHEMBL3352244, “Synthesis and biological activity of 5-(4-methoxyphenyl)-oxazole derivatives” (Bioorg Med Chem Lett, 2015)
